Values of other authors, collected in patent US20090221469A1, “USE OF SOY KEFIR POWDER FOR REDUCING PAIN, BLOOD PRESSURE AND INFLAMMATION” (KCLM RESEARCH IN NUTRITION INC., priority 2006, published 2009).

Legend:
[1] = system: patients with neuralgia or moderate to severe nonmalignant pain; details: treatment of neuralgia (Stacey et al., 2004)

Compound	SF-36 improvement of mean scores for bodily pain [1] [points]	half-lives [h]
NCC1(CC(=O)O)CCCCC1 [gabapentin]	9.2	–
isoflavones	–	4 to 8
